Where two headings read alike, the source gives them in different places.

In general, EC50 refers to the concentration that produces a half-maximal response.

The experiment has as its system HCV 1b genotype. Put plainly: HCV replicon assay (HCV-neo replicon cells, wild-type). The class given is cell-based, Hepatitis C virus. As to conditions: Hepatitis C virus, HCV 1b genotype replicon. Put shortly: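 Inhibition was tested in replicon-bearing cells, both wild-type HCV-neo and lines with NS5A resistance substitutions, using the O'Boyle et al. 2005 replicon method or luciferase-reporter formats.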
A general note: Replicon systems follow genome replication, usually without infectious particles.

The mark [1] stands for this setting: class symbol, read-out: EC50 Range against HCV 1b.

On to `CC(=O)N1CCC[C@H]1C(=O)Nc1ccc(-c2nnc(-c3ccc(NC(=O)[C@@H]4CCCN4C(=O)Cc4ccccc4)cc3)o2)cc1` [Example D-54, (2S)-1-acetyl-N-[4-[5-[4-[[[(2S)-1-(phenylacetyl)-2-pyrrolidinyl]carbonyl]amino]phenyl]-1,3,4-oxadiazol-2-yl]phenyl]-2-pyrrolidinecarboxamide], for which the half-maximal effective concentration (EC50) was 1000 to 10000 nM under setting [1] and 4760 nM (read-out: EC50 1b).

Consider `CC(=O)N1CCC[C@H]1C(=O)Nc1ccc(-c2nnc(-c3ccc(NC(=O)[C@@H]4CCCN4C(C)=O)cc3)o2)cc1` [Example D-55, (2S,2′S)-N,N′-(1,3,4-oxadiazole-2,5-diyldi-4,1-phenylene)bis[1-acetyl-2-pyrrolidinecarboxamide]], for which the EC50 under setting [1] was 1000 to 10000 nM and the EC50 (read-out: EC50 1b) came out at 10000 nM.

On to `O=C(Nc1ccc(-c2nnc(-c3ccc(NC(=O)[C@@H]4CCCN4C(=O)CC4CC4)cc3)o2)cc1)[C@@H]1CCCN1C(=O)CC1CC1` [Example D-57, (2S,2′S)-N,N′-(1,3,4-oxadiazole-2,5-diyldi-4,1-phenylene)bis[1-(cyclopropylacetyl)-2-pyrrolidinecarboxamide]], for which the EC50 under setting [1] lay within 1000 to 10000 nM and the EC50 (read-out: EC50 1b) came out at 1950 nM.

As for `O=C(Nc1ccc(-c2nnc(-c3ccc(NC(=O)[C@@H]4CCCN4C(=O)C4CC4)cc3)o2)cc1)[C@@H]1CCCN1C(=O)C1CC1` [Example D-58, (2S,2′S)-N,N′-(1,3,4-oxadiazole-2,5-diyldi-4,1-phenylene)bis[1-(cyclopropylcarbonyl)-2-pyrrolidinecarboxamide]], the EC50 under setting [1] lay within 1000 to 10000 nM and the EC50 (read-out: EC50 1b) was 2210 nM.

For the compound `O=C(Nc1ccc(-c2nnc(-c3ccc(NC(=O)[C@@H]4CCCN4C(=O)C4CCC4)cc3)o2)cc1)[C@@H]1CCCN1C(=O)C1CCC1` [Example D-59, (2S,2′S)-N,N′-(1,3,4-oxadiazole-2,5-diyldi-4,1-phenylene)bis[1-(cyclobutylcarbonyl)-2-pyrrolidinecarboxamide]], the EC50 is, setting by setting: under setting [1], 1000 to 10000 nM; (read-out: EC50 1b) 5450 nM.

`O=C(Nc1ccc(-c2nnc(-c3ccc(NC(=O)[C@@H]4CCCN4C(=O)[C@@H]4CCCO4)cc3)o2)cc1)[C@@H]1CCCN1C(=O)C1CCCO1` (stereo partly drawn) [Example D-60, (S,2S,2′S)-N,N′-(4,4′-(1,3,4-oxadiazole-2,5-diyl)bis(4,1-phenylene))bis(1-((S)-tetrahydrofuran-2-carbonyl)pyrrolidine-2-carboxamide)]: the EC50 under setting [1] was 100 to 999 nM and the EC50 (read-out: EC50 1b) turned out to be 650 nM.

Consider `O=C(Nc1ccc(-c2nnc(-c3ccc(NC(=O)[C@@H]4CCCN4C(=O)Cc4cccs4)cc3)o2)cc1)[C@@H]1CCCN1C(=O)Cc1cccs1` [Example D-61, (2S,2′S)-N,N′-(4,4′-(1,3,4-oxadiazole-2,5-diyl)bis(4,1-phenylene))bis(1-(2-(thiophen-2-yl)acetyl)pyrrolidine-2-carboxamide)], for which the EC50 is, setting by setting: under setting [1], 100 to 999 nM; (read-out: EC50 1b) 327 nM.

Turning to `CC(=O)N1CCC[C@H]1C(=O)Nc1ccc(-c2nnc(-c3ccc(NC(=O)[C@@H]4CCCN4C(=O)Cc4cccs4)cc3)o2)cc1` [Example D-62, (2S)-1-acetyl-N-[4-[5-[4-[[[(2S)-1-(2-thienylacetyl)-2-pyrrolidinyl]carbonyl]amino]phenyl]-1,3,4-oxadiazol-2-yl]phenyl]-2-pyrrolidinecarboxamide], the EC50 runs as follows: under setting [1], 1000 to 10000 nM; (read-out: EC50 1b) 3470 nM.

On to `O=C(Nc1ccc(-c2nnc(-c3ccc(NC(=O)[C@@H]4CCCN4C(=O)Cc4cccnc4)cc3)o2)cc1)[C@@H]1CCCN1C(=O)Cc1cccnc1` [Example D-63, (2S,2′S)-N,N′-(1,3,4-oxadiazole-2,5-diyldi-4,1-phenylene)bis[1-(3-pyridinylacetyl)-2-pyrrolidinecarboxamide]], for which the EC50 runs as follows: under setting [1], 1000 to 10000 nM; (read-out: EC50 1b) 1940 nM.

The values above are taken from patent US8735398B2 (Bristol-Myers Squibb Company, priority 2009, dated 2014).
